Test results from patent US20100239556A1, “PROMOTING ECM PRODUCTION BY FIBROBLAST CELLS AND/OR PROMOTING MIGRATION OF FIBROBLAST CELLS IN A BIOLOGICAL SYSTEM” (TGR BioScience Pty Ltd., priority 2006, published 2010).

Experiments:
[1] = tested on: adult primary fibroblast cells and HFF cells; test: Organisation of collagen fibers on coverslips (collagen I immunohistochemistry); format: cell-based, human; conditions: treated up to 7 days
Description: ECM, rather than disorganized ECM which would increase the risk of scar formation within the dermis and contribute to the generation of structurally and functionally impaired replacement tissue, additional experiments were performed to visualize the collagen fibers formed by fibroblast cells stimulated with proteins having peroxidase activity. These experiments involved growing adult primary fibroblast cells and HFF cells on microscope slide coverslips placed into each well of six well tissue culture plates. Each well containing a coverslip was seeded with 1.5×10^5 cells and after one week of culture, the cells were treated with a range of proteins having peroxidase activity for up to 7 days. At the end of the experiment, the cell media was removed and the cells and cell-associated ECM fixed by the addition of 10% formalin. The coverslips were removed from the tissue culture plate and stained immunohistochemically for collagen I using the method outlined in Example 3 for the SMA immunohistochemistry with the variation that 5 μg/ml rabbit anti Collagen-I (Rocklands Immunochemicals) was used as the primary antibody.

[2] = tested on: HFF cells; test: Fibroblast infiltration into INTEGRA scaffold (SMA immunohistochemistry); format: cell-based, human; conditions: 6 days
Excerpt: INTEGRA® was cut into lcm x lcm pieces using a sterile scalpel, the pieces transferred to a petri dish using sterile forceps and washed four times each with PBS followed by serum-free DMEM, to remove the alcohol storage medium and to equilibrate the porous scaffold for exposure to cells. After the last wash, the INTEGRA® pieces were transferred to the wells of a 12 well tissue culture plate (collagen layer facing up) immersed in media containing proteins having peroxidase activity. This “pre-treatment” of the INTEGRA® with proteins having peroxidase activity was performed for up to 16 hours at 37° C. in a CO2 incubator. […]
Additional experiments were performed as described above using HFF cells and varying the period of application of the proteins having peroxidase activity to include a “pre-treatment” application only (ie INTEGRA® incubated with SBP 25 μg/ml for up to 16 hours prior to the addition of cells), a “pre-treatment” and “post-treatment” application (ie INTEGRA® pre-treated with SBP and SBP added to the culture media once the INTEGRA had been seeded with cells) and a “post-treatment” application only (ie SBP added to the culture media once the INTEGRA® had been seeded with cells). The INTEGRA® was harvested after 6 days in culture and the number of SMA-positive fibroblast cells counted in five representative fields of view of sections from each condition.

[3] = tested on: primary-adult fibroblast cells; test: as above; format: cell-based, human
Excerpt: INTEGRA® was cut into lcm x lcm pieces using a sterile scalpel, the pieces transferred to a petri dish using sterile forceps and washed four times each with PBS followed by serum-free DMEM, to remove the alcohol storage medium and to equilibrate the porous scaffold for exposure to cells. After the last wash, the INTEGRA® pieces were transferred to the wells of a 12 well tissue culture plate (collagen layer facing up) immersed in media containing proteins having peroxidase activity. This “pre-treatment” of the INTEGRA® with proteins having peroxidase activity was performed for up to 16 hours at 37° C. in a CO2 incubator. After the “pre-incubation” period, the media was replaced with fresh DMEM supplemented with 10% FBS (ie normal growth media as the control) containing 5×10^5 human fibroblast cells plus or minus proteins having peroxidase activity. After allowing 24 hours for the fibroblast cells to attach to the collagen matrix of the INTEGRA® scaffold, the INTEGRA® pieces were transferred to fresh 12 well plates to ensure any cells not attached to the matrix surface were removed. Fresh media containing proteins with peroxidase activity were added to the wells and the INTEGRA® pieces incubated for up to 14 days (“post-treatment” period) with the media changed every 7 days as necessary. […]

[4] = tested on: adult fibroblast cells; test: ECM production within INTEGRA scaffold (collagen I immunohistochemistry); format: cell-based, human
Excerpt: (§1) INTEGRA® was cut into lcm x lcm pieces using a sterile scalpel, the pieces transferred to a petri dish using sterile forceps and washed four times each with PBS followed by serum-free DMEM, to remove the alcohol storage medium and to equilibrate the porous scaffold for exposure to cells. After the last wash, the INTEGRA® pieces were transferred to the wells of a 12 well tissue culture plate (collagen layer facing up) immersed in media containing proteins having peroxidase activity. This “pre-treatment” of the INTEGRA® with proteins having peroxidase activity was performed for up to 16 hours at 37° C. in a CO2 incubator. After the “pre-incubation” period, the media was replaced with fresh DMEM supplemented with 10% FBS (ie normal growth media as the control) containing 5×10^5 human fibroblast cells plus or minus proteins having peroxidase activity. After allowing 24 hours for the fibroblast cells to attach to the collagen matrix of the INTEGRA® scaffold, the INTEGRA® pieces were transferred to fresh 12 well plates to ensure any cells not attached to the matrix surface were removed. Fresh media containing proteins with peroxidase activity were added to the wells and the INTEGRA® pieces incubated for up to 14 days (“post-treatment” period) with the media changed every 7 days as necessary. At the end of the experiment the INTEGRA® pieces were harvested and fixed in 10% buffered formaldehyde before they were processed, embedded in paraffin wax, cut in cross-section and placed onto microscope slides for histological and immunohistochemical analysis.
(§2) To confirm proteins having peroxidase activity promote the generation of a three-dimensional human tissue by stimulating the production of collagen and other ECM components to fill the interstices of a three-dimensional framework or scaffold, INTEGRA® pieces collected from the experiments described in Example 3 were analysed for the production of Collagen I (as a representative ECM protein) using immunohistochemistry. […]

[5] = tested on: HFF cells; test: as above; format: cell-based, human; conditions: SBP 25 μg/ml pre-, pre+post- or post-treatment
Excerpt: as §1, §2

[6] = tested on: dermis; test: Cellular integration and ECM production of dermal filler substances implanted intradermally; format: in vivo, Sprague-Dawley rats; conditions: one month after implantation; for cellular integration and ECM production within Hylaform: LP 1 mg/ml or HRP 500 μg/ml added to Hylaform, or Hylaform alone; for cellular integration and ECM production within Restylane: LP 1 mg/ml or HRP 500 μg/ml added to Restylane, or Restylane alone
Description: The ability of agents with peroxidase activity to stimulate the production of endogenous ECM within, or about, a substrate when implanted in vivo was assessed. Substrates used for these experiments were two hyaluronic acid based dermal filler substances; Hylaform® Plus containing 5.5 mg/ml hylan B gel and Restylane® containing 20 mg/ml stabilised hyaluronic acid, and Sculptra® containing poly-L-lactic acid. The two pre-prepared “ready to use” hyaluronic acid filler substances were diluted 1:2 with 1 mg/ml HRP to give a final concentration of 500 μg/ml HRP whilst Sculptra powder was dissolved in a lmg/ml LP solution to final concentrations of 25 and 50 mg/ml poly-L-lactic acid. As described in example 8, female Sprague-Dawley rats were lightly anaesthetized and a volume of approximately 50 μl of the filler substance+protein with peroxidase activity or filler substance alone were injected intradermally into different sites on their dorsum. The rats were returned to their cage and left alone for 7 days or 1 month after which they were killed by CO2 asphyxiation and the skin at the injection sites collected for histological assessment as described in example 8, or immunohistochemical staining for collagen I using the method outlined previously for the SMA immunohistochemistry (in Example 3) with the variation that 5 μg/ml rabbit anti Collagen-I (Rocklands Immunochemicals) was used as the primary antibody.

[7] = 25 μg/ml before and after addition of cells, 7 days, versus 7 and 14 day controls

For microperoxidase [MP], which “collagen fibers in the cell-associated ECM” value [1] is on record?
The value was “collagen was not the major ECM protein deposited”.

Which “number of fibroblast cells infiltrating and populating the INTEGRA” value ([2]; SBP 25 μg/ml pre-, pre+post- or post-treatment, versus 10% FBS control) does the source give for soy bean peroxidase [SBP] here?
Its value is “major influence on the number of fibroblast cells infiltrating and populating”.

What about the “penetration of HFF cells into the scaffold” value ([2]; SBP 25 μg/ml, controls limited to about the top third) of the same molecule?
The value was “penetrated the full thickness of the scaffold”.

What about the “cells within the interstices of the INTEGRA scaffold” value [3, 7] of the same molecule?
Its value is “many more cells were evident within the interstices of the scaffold”.

And the “cell-associated ECM within the interstices of the scaffold” value [4, 7]?
Its value is “much more cell-associated ECM was evident”.

And the “production and deposition of cell-associated ECM in the scaffold” value [5]?
The value was “as effective at promoting the production and depositon of cell-associated ECM throughout the full thickness of the scaffold”.

With lactoperoxidase [LP] as the molecule, how does the “cellular integration and ECM production within Hylaform” value [6] read?
The value was “surprising increase in cellular infiltration and integration and cell-associated ECM production”.

And the “cellular integration and ECM production within Restylane” value [6]?
The value was “surprising increase in cellular infiltration and integration and cell-associated ECM production”.

B1: horse radish peroxidase (protein, UniProt P00433 31-338, looked up)
Peroxidase C1A: QLTPTFYDNSCPNVSNIVRDTIVNELRSDPRIAASILRLHFHDCFVNGCDASILLDNTTSFRTEKDAFGNANSARGFPVIDRMKAAVESACPRTVSCADLLTIAAQQSVTLAGGPSWRVPLGRRDSLQAFLDLANANLPAPFFTLPQLKDSFRNVGLNRSSDLVALSGGHTFGKNQCRFIMDRLYNFSNTGLPDPTLNTTYLQTLRGLCPLNGNLSALVDFDLRTPTIFDNKYYVNLEEQKGLIQSDQELFSSPNATDTIPLVRSFANSTQTFFNAFVEAMDRMGNITPLTGTQGQIRLNCRVVNSNS
B1 was tested. Which “cellular integration and ECM production within Hylaform” value [6] did it give?
The value was “Increased cellular integration and ECM production”.

What about the “cellular integration and ECM production within Restylane” value [6] of the same molecule?
Its value is “Increased cellular integration and ECM production”.

And the “cells within the INTEGRA scaffold” value ([3]; 25 μg/ml, 14 days of treatment)?
Its value is “even greater number of cells evident within the scaffold”.

What about the “ECM production and integration” value ([4]; 25 μg/ml, 14 days, versus 14 days standard conditions) of the same molecule?
The value was “much greater ECM production and integration”.

What about the “collagen fibers in the cell-associated ECM” value [1] of the same molecule?
Its value is “strongly stained, parallel collagen fibers”.
